Species on record: Rattus norvegicus
Assay: DrugMatrix - Regimen: Daily Repeat
Format: toxicity, organism-based, Sprague-Dawley
Design: regimen Daily Repeat, gender Male, age 6-8 weeks
Conditions: in vivo, po, route oral GAVAGE, vehicle 100 % WATER; for BASOPHIL / EOSINOPHIL / ERYTHROCYTE COUNT / HEMATOCRIT / HEMOGLOBIN / LEUKOCYTE COUNT / LYMPHOCYTE / MEAN CORPUSCULAR HEMOGLOBIN / MEAN CORPUSCULAR HEMOGLOBIN CONCENTRATION / MEAN CORPUSCULAR VOLUME / MONOCYTE / NEUTROPHIL / PLATELET COUNT: tissue Blood; for ALANINE AMINOTRANSFERASE / ALBUMIN / ALKALINE PHOSPHATASE / ASPARTATE AMINOTRANSFERASE / BLOOD UREA NITROGEN / CHLORIDE / CHOLESTEROL / CREATINE PHOSPHOKINASE / CREATININE / GLUCOSE / PHOSPHORUS / POTASSIUM / SODIUM / TOTAL BILIRUBIN / TOTAL PROTEIN: tissue Plasma
[1] = 0 mg/kg, 72 h, dose level Control, time 3 day
[2] = 0 mg/kg, 120 h, dose level Control, time 5 day
[3] = 53.5 mg/kg, 72 h, dose level Low, time 3 day
[4] = 53.5 mg/kg, 120 h, dose level Low, time 5 day
[5] = 535 mg/kg, 72 h, dose level High, time 3 day
[6] = 535 mg/kg, 120 h, dose level High, time 5 day

Structure (SMILES): CN1C(=O)OC(C)(C)C1=O [TRIMETHADIONE]
- BASOPHIL [1]: 0%
- EOSINOPHIL [1]: 0.5%
- ERYTHROCYTE COUNT [1]: 5.8 x10E6/uL
- HEMATOCRIT [1]: 35.07%
- HEMOGLOBIN [1]: 14.12 G/DL
- LEUKOCYTE COUNT [1]: 13.7 x10E3/uL
- LYMPHOCYTE [1]: 82.33%
- MEAN CORPUSCULAR HEMOGLOBIN [1]: 24.38 pg
- MEAN CORPUSCULAR HEMOGLOBIN CONCENTRATION [1]: 40.28 G/DL
- MEAN CORPUSCULAR VOLUME [1]: 60.52 fL
- MONOCYTE [1]: 2.67%
- NEUTROPHIL [1]: 14.5%
- PLATELET COUNT [1]: 911.5 x10E3/uL
- ALANINE AMINOTRANSFERASE [1]: 36.83 u/L
- ALBUMIN [1]: 3.75 G/DL
- ALKALINE PHOSPHATASE [1]: 399.83 u/L
- ASPARTATE AMINOTRANSFERASE [1]: 66 u/L
- BLOOD UREA NITROGEN [1]: 14.67 mg/dL
- CHLORIDE [1]: 101.67 MEQ/L
- CHOLESTEROL [1]: 66.33 mg/dL
- CREATINE PHOSPHOKINASE [1]: 139.5 u/L
- CREATININE [1]: 0.92 mg/dL
- GLUCOSE [1]: 175 mg/dL
- PHOSPHORUS [1]: 11.42 mg/dL
- POTASSIUM [1]: 7.03 MEQ/L
- SODIUM [1]: 148.5 MEQ/L
- TOTAL BILIRUBIN [1]: 1.13 mg/dL
- TOTAL PROTEIN [1]: 6.87 G/DL
- BASOPHIL [2]: 0%
- EOSINOPHIL [2]: 0.2%
- ERYTHROCYTE COUNT [2]: 6.02 x10E6/uL
- HEMATOCRIT [2]: 36.48%
- HEMOGLOBIN [2]: 14.38 G/DL
- LEUKOCYTE COUNT [2]: 12.34 x10E3/uL
- LYMPHOCYTE [2]: 83%
- MEAN CORPUSCULAR HEMOGLOBIN [2]: 23.92 pg
- MEAN CORPUSCULAR HEMOGLOBIN CONCENTRATION [2]: 39.44 G/DL
- MEAN CORPUSCULAR VOLUME [2]: 60.66 fL
- MONOCYTE [2]: 3%
- NEUTROPHIL [2]: 13.8%
- PLATELET COUNT [2]: 1190.6 x10E3/uL
- ALANINE AMINOTRANSFERASE [2]: 43 u/L
- ALBUMIN [2]: 3.73 G/DL
- ALKALINE PHOSPHATASE [2]: 393 u/L
- ASPARTATE AMINOTRANSFERASE [2]: 62.33 u/L
- BLOOD UREA NITROGEN [2]: 16.33 mg/dL
- CHLORIDE [2]: 101.67 MEQ/L
- CHOLESTEROL [2]: 65.5 mg/dL
- CREATINE PHOSPHOKINASE [2]: 130.67 u/L
- CREATININE [2]: 0.58 mg/dL
- GLUCOSE [2]: 180.67 mg/dL
- PHOSPHORUS [2]: 11.28 mg/dL
- POTASSIUM [2]: 7.05 MEQ/L
- SODIUM [2]: 148.17 MEQ/L
- TOTAL BILIRUBIN [2]: 0.72 mg/dL
- TOTAL PROTEIN [2]: 6.83 G/DL
- BASOPHIL [3]: 0%
- EOSINOPHIL [3]: 0.5%
- ERYTHROCYTE COUNT [3]: 6.33 x10E6/uL
- HEMATOCRIT [3]: 38.05%
- HEMOGLOBIN [3]: 15.05 G/DL
- LEUKOCYTE COUNT [3]: 12.85 x10E3/uL
- LYMPHOCYTE [3]: 83.5%
- MEAN CORPUSCULAR HEMOGLOBIN [3]: 23.8 pg
- MEAN CORPUSCULAR HEMOGLOBIN CONCENTRATION [3]: 39.55 G/DL
- MEAN CORPUSCULAR VOLUME [3]: 60.15 fL
- MONOCYTE [3]: 3.5%
- NEUTROPHIL [3]: 12.5%
- PLATELET COUNT [3]: 1304.5 x10E3/uL
- ALANINE AMINOTRANSFERASE [3]: 36.5 u/L
- ALBUMIN [3]: 3.7 G/DL
- ALKALINE PHOSPHATASE [3]: 313 u/L
- ASPARTATE AMINOTRANSFERASE [3]: 61.5 u/L
- BLOOD UREA NITROGEN [3]: 12 mg/dL
- CHLORIDE [3]: 101 MEQ/L
- CHOLESTEROL [3]: 59 mg/dL
- CREATINE PHOSPHOKINASE [3]: 136 u/L
- CREATININE [3]: 0.55 mg/dL
- GLUCOSE [3]: 210.5 mg/dL
- PHOSPHORUS [3]: 13 mg/dL
- POTASSIUM [3]: 6.85 MEQ/L
- SODIUM [3]: 151 MEQ/L
- TOTAL BILIRUBIN [3]: 0.35 mg/dL
- TOTAL PROTEIN [3]: 6.65 G/DL
- BASOPHIL [4]: 0%
- EOSINOPHIL [4]: 0%
- ERYTHROCYTE COUNT [4]: 6.06 x10E6/uL
- HEMATOCRIT [4]: 36.17%
- HEMOGLOBIN [4]: 14.4 G/DL
- LEUKOCYTE COUNT [4]: 18.23 x10E3/uL
- LYMPHOCYTE [4]: 83.33%
- MEAN CORPUSCULAR HEMOGLOBIN [4]: 23.8 pg
- MEAN CORPUSCULAR HEMOGLOBIN CONCENTRATION [4]: 39.83 G/DL
- MEAN CORPUSCULAR VOLUME [4]: 59.7 fL
- MONOCYTE [4]: 2.33%
- NEUTROPHIL [4]: 14.33%
- PLATELET COUNT [4]: 1288 x10E3/uL
- ALANINE AMINOTRANSFERASE [4]: 36.67 u/L
- ALBUMIN [4]: 3.57 G/DL
- ALKALINE PHOSPHATASE [4]: 314 u/L
- ASPARTATE AMINOTRANSFERASE [4]: 59 u/L
- BLOOD UREA NITROGEN [4]: 12 mg/dL
- CHLORIDE [4]: 102.33 MEQ/L
- CHOLESTEROL [4]: 70.67 mg/dL
- CREATINE PHOSPHOKINASE [4]: 109.33 u/L
- CREATININE [4]: 0.6 mg/dL
- GLUCOSE [4]: 190.67 mg/dL
- PHOSPHORUS [4]: 13.13 mg/dL
- POTASSIUM [4]: 6.6 MEQ/L
- SODIUM [4]: 151.33 MEQ/L
- TOTAL BILIRUBIN [4]: 0.3 mg/dL
- TOTAL PROTEIN [4]: 6.5 G/DL
- BASOPHIL [5]: 0%
- EOSINOPHIL [5]: 0%
- ERYTHROCYTE COUNT [5]: 6.23 x10E6/uL
- HEMATOCRIT [5]: 37.4%
- HEMOGLOBIN [5]: 14.63 G/DL
- LEUKOCYTE COUNT [5]: 13.2 x10E3/uL
- LYMPHOCYTE [5]: 82.67%
- MEAN CORPUSCULAR HEMOGLOBIN [5]: 23.5 pg
- MEAN CORPUSCULAR HEMOGLOBIN CONCENTRATION [5]: 39.13 G/DL
- MEAN CORPUSCULAR VOLUME [5]: 60 fL
- MONOCYTE [5]: 5.67%
- NEUTROPHIL [5]: 11.67%
- PLATELET COUNT [5]: 1178.33 x10E3/uL
- ALANINE AMINOTRANSFERASE [5]: 42.67 u/L
- ALBUMIN [5]: 3.63 G/DL
- ALKALINE PHOSPHATASE [5]: 285 u/L
- ASPARTATE AMINOTRANSFERASE [5]: 71 u/L
- BLOOD UREA NITROGEN [5]: 12.67 mg/dL
- CHLORIDE [5]: 98.33 MEQ/L
- CHOLESTEROL [5]: 72 mg/dL
- CREATINE PHOSPHOKINASE [5]: 136.33 u/L
- CREATININE [5]: 0.57 mg/dL
- GLUCOSE [5]: 181.33 mg/dL
- PHOSPHORUS [5]: 12.93 mg/dL
- POTASSIUM [5]: 6.83 MEQ/L
- SODIUM [5]: 152 MEQ/L
- TOTAL BILIRUBIN [5]: 0.27 mg/dL
- BASOPHIL [6]: 0%
- EOSINOPHIL [6]: 0.33%
- ERYTHROCYTE COUNT [6]: 5.77 x10E6/uL
- HEMATOCRIT [6]: 33.97%
- HEMOGLOBIN [6]: 13.13 G/DL
- LEUKOCYTE COUNT [6]: 10.67 x10E3/uL
- LYMPHOCYTE [6]: 78.67%
- MEAN CORPUSCULAR HEMOGLOBIN [6]: 22.8 pg
- MEAN CORPUSCULAR HEMOGLOBIN CONCENTRATION [6]: 38.67 G/DL
- MEAN CORPUSCULAR VOLUME [6]: 58.97 fL
- MONOCYTE [6]: 2.67%
- NEUTROPHIL [6]: 18.33%
- PLATELET COUNT [6]: 1123.33 x10E3/uL
- ALANINE AMINOTRANSFERASE [6]: 42 u/L
- ALBUMIN [6]: 3.67 G/DL
- ALKALINE PHOSPHATASE [6]: 272.33 u/L
- ASPARTATE AMINOTRANSFERASE [6]: 78.33 u/L
- BLOOD UREA NITROGEN [6]: 14.67 mg/dL
- CHLORIDE [6]: 99.33 MEQ/L
- CHOLESTEROL [6]: 74.33 mg/dL
- CREATINE PHOSPHOKINASE [6]: 143.67 u/L
- CREATININE [6]: 0.57 mg/dL
- GLUCOSE [6]: 180.33 mg/dL
- PHOSPHORUS [6]: 13.1 mg/dL
- POTASSIUM [6]: 6.6 MEQ/L
- SODIUM [6]: 153.33 MEQ/L
- TOTAL BILIRUBIN [6]: 0.27 mg/dL
- TOTAL PROTEIN [6]: 6.53 G/DL

Reference: ChEMBL document CHEMBL3885881, “DrugMatrix”
